Measurements: US9718813B2, “Imidazolin-5-one derivative useful as FASN inhibitors for the treatment of cancer” (Janssen Pharmaceutica, NV, priority 2013, dated 2017)

Key:
[1] = molecular target: hFASN enzyme (full length) (Homo sapiens (Human), UniProt P49327); experiment: Fatty Acid Synthase (FASN) Inhibition Scintillation Proximity Assay; assay type: biochemical; details: 3H-acetyl-CoA and malonyl-CoA substrates, SPA, mean if tested more than once; for IC50: read-out: Human FASN pIC50 (converted)
Sequence of hFASN enzyme (full length) (P49327 whole entry, the tested form may be a part): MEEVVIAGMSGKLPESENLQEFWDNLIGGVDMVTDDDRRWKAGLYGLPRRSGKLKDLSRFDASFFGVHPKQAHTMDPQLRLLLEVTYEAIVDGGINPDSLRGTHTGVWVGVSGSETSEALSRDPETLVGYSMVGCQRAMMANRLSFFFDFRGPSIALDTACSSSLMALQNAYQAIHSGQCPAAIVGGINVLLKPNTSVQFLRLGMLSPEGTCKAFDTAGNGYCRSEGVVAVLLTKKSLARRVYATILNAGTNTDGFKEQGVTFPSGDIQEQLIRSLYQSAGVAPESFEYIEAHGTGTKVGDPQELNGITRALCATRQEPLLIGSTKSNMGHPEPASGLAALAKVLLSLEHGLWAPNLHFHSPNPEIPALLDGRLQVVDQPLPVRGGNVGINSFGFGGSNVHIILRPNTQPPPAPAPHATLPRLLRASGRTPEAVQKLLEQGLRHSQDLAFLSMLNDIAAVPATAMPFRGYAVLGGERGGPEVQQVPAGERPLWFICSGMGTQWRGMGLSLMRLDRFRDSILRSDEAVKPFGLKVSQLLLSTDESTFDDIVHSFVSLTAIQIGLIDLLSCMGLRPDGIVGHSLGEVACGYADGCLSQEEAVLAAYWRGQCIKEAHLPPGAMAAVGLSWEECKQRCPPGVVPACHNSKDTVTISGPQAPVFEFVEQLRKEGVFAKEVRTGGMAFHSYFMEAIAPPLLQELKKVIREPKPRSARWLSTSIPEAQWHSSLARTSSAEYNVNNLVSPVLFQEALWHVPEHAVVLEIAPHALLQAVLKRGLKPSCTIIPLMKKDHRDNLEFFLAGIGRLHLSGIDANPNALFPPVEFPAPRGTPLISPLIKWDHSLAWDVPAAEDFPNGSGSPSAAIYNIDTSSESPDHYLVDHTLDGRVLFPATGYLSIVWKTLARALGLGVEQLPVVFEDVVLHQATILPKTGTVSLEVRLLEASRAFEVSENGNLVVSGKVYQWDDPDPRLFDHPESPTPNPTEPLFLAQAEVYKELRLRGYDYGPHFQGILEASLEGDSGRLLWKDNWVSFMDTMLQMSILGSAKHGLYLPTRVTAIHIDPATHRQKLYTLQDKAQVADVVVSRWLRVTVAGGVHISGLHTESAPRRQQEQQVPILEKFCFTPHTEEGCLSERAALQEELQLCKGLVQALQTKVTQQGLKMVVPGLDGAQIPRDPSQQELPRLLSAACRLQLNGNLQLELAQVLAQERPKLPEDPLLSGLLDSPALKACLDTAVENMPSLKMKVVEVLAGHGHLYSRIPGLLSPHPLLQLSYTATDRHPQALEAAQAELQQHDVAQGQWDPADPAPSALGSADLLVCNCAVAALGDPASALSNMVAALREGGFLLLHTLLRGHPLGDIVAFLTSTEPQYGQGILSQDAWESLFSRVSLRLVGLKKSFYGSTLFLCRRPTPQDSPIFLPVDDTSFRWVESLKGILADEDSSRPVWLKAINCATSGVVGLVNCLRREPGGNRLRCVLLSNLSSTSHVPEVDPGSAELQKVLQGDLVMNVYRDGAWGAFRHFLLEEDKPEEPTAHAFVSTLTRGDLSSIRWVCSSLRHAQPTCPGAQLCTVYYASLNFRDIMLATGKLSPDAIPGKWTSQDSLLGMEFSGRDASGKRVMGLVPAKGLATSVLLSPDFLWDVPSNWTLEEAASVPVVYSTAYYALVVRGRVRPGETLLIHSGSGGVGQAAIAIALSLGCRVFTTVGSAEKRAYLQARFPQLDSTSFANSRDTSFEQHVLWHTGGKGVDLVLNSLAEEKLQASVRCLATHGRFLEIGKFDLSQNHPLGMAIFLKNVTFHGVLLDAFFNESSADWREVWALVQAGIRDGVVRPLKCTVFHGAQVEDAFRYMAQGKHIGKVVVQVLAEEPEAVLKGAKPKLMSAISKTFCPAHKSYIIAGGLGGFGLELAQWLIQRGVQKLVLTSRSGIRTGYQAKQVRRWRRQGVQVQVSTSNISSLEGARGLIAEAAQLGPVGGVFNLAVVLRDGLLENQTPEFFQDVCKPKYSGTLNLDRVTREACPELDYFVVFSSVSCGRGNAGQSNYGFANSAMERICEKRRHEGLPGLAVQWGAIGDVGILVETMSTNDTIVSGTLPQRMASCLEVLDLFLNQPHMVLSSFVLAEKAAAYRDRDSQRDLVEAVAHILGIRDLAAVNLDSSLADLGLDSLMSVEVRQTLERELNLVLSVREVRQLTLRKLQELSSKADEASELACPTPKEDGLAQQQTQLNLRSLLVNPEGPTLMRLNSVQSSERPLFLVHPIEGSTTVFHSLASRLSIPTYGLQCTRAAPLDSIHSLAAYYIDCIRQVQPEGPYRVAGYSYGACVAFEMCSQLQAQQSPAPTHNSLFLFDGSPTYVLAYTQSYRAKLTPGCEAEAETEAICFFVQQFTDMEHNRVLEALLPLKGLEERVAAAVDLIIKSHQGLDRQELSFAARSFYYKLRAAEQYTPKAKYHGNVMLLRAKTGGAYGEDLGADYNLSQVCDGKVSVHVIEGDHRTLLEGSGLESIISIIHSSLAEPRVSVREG
Experimental: In this assay, inhibition of FASN activity is measured using ^3H-acetyl-CoA and malonyl-CoA as substrates. ^3H-Acetyl CoA is converted to ^3H-palmitate through a series of reactions by the FASN protein, which contains 7 functional domains and carries out 7 enzymatic reactions to ultimately produce ^3H-palmitate. The assay principle is based upon the fact that ^3H-acetyl-CoA is hydrophilic and the end product, ^3H-palmitate is hydrophobic.
10 μL assay buffer (100 mM KH2PO4 pH 7.5, 1 mM DTT) (20 μL in blanks) was added to a 384-well white Opti Plate plate (Perkin Elmer). 0.9 μL test compound (at concentrations of 30 μM, 10 μM, 3 μM, 1 μM, 0.30 μM, 0.10 μM, 0.03 μM and 0.01 μM)/DMSO and 10 μL hFASN enzyme (full length, 300 ng, purified in house) or 10 μL assay buffer was added to the wells. […] The reaction was stopped by adding 20 μL Streptavidin coupled imaging beads (25 mg/ml). After incubation for 30 minutes at room temperature in the dark, the 384 well plate was centrifuged at 1500 rpm for 3 minutes and was measured after at least 24 hrs by the LEADseeker™, measuring emission using a 610±20 nm pass filter.
(§1) Raw data generated by the instrument were normalized to % Controlmin values, which were calculated as: % Controlmin=100*(x−mLC)/(mHC−mLC)
(§2) where mLC and mHC were the means of the low control wells and high control wells on the plate, after manual exclusion of outliers. A plot of Controlmin versus test compound concentration was fitted to a 4-parameter logistic curve using a non-linear least squares regression method.

[2] = molecular target: FASN Keto-reductase Domain (hFASN enzyme, full length) (Homo sapiens (Human), UniProt P49327); experiment: Fatty Acid Synthase Keto-reductase Domain (FASN KR) Inhibition; assay type: biochemical; details: NADPH oxidation at 340 nm, ethyl acetoacetate substrate
Sequence of FASN Keto-reductase Domain (hFASN enzyme, full length) (P49327 whole entry, the tested form may be a part): as above
Experimental: After 20 minutes incubation at room temperature the plate was measured again (T2).
The decrease in absorbance was calculated as (Absorbance before incubation T1)−(Absorbance following incubation T2).
as §1, §2

SMILES | Human FASN pIC50 [1] | FASN Keto-reductase Domain pIC50 [2] | IC50 [1] [nM] | IC50 ([2]; read-out: FASN Keto-reductase Domain pIC50 (converted)) [nM]
Cn1cc(-c2ccc(-c3ccc(C4=NC(C)(C)C(=O)N4C[C@@H]4CCN(C(=O)C5CC5)C4)c(F)c3)cc2)cn1 [Compound 45, (R)-1-((1-(cyclopropanecarbonyl)pyrrolidin-3-yl)methyl)-2-(3-fluoro-4-(1-methyl-1H-pyrazol-4-yl)-[1,1′-biphenyl]-4-yl)-4,4-dimethyl-1H-imidazol-5(4H)-one] | 7.20 | 6.95 |  | 
CC1(C)N=C(c2ccc(-c3ccc4occc4c3)cc2)N(C[C@@H]2CCN(C(=O)C3(F)CC3)C2)C1=O [Compound 4, (R)-2-(4-(benzofuran-5-yl)phenyl)-1-((1-(1-fluorocyclopropanecarbonyl)pyrrolidin-3-yl)methyl)-4,4-dimethyl-1H-imidazol-5(4H)-one] | 6.92 | 6.22 |  | 
CC1(C)N=C(c2ccc(-c3ccc4cccc(F)c4c3)cc2)N(C[C@@H]2CCN(C(=O)C3CC3)C2)C1=O [Compound 41, (R)-1-((1-(cyclopropanecarbonyl)pyrrolidin-3-yl)methyl)-2-(4-(8-fluoronaphthalen-2-yl)phenyl)-4,4-dimethyl-1H-imidazol-5(4H)-one] | 7.34 | 7.13 |  | 
Cn1cc(-c2ccc(-c3ccc(C4=NC(C)(C)C(=O)N4CC4CN(C(=O)C5CC5)C4)cc3)cc2)cn1 [Compound 17, 1-((1-(cyclopropanecarbonyl)azetidin-3-yl)methyl)-4,4-dimethyl-2-(4′-(1-methyl-1H-pyrazol-4-yl)-[1,1′-biphenyl]-4-yl)-1H-imidazol-5(4H)-one] | 6.26 | 5.57 |  | 
CC1(c2ccccc2)N=C(c2ccc(-c3ccc4occc4c3)cc2)N(C[C@@H]2CCN(C(=O)C3CC3)C2)C1=O (mixture of isomers) [Compound 5, (4RS)-2-(4-(Benzofuran-5-yl)phenyl)-1-(((R)-1-(cyclopropanecarbonyl)pyrrolidin-3-yl)methyl)-4-methyl-4-phenyl-1H-imidazol-5(4H)-one] |  |  | 155 | 537
CC1(C)N=C(c2ccc(-c3cccc4ncccc34)cc2F)N(C[C@@H]2CCN(C(=O)C3CC3)C2)C1=O [Compound 47, (R)-1-((1-(cyclopropanecarbonyl)pyrrolidin-3-yl)methyl)-2-(2-fluoro-4-(quinolin-5-yl)phenyl)-4,4-dimethyl-1H-imidazol-5(4H)-one] | 6.78 | 6.52 |  | 
Cn1cc(-c2ccc(-c3ccc(C4=NC(C)(C)C(=O)N4CC4CN(C(=O)C5CC5)C4)c(F)c3)cc2)cn1 [Compound 33, 1-((1-(cyclopropanecarbonyl)azetidin-3-yl)methyl)-2-(3-fluoro-4′-(1-methyl-1H-pyrazol-4-yl)-[1,1′-biphenyl]-4-yl)-4,4-dimethyl-1H-imidazol-5(4H)-one] | 6.74 | 6.38 |  | 
CC1(C)N=C(c2ccc(-c3ccc4cncnc4c3)cc2F)N(C[C@@H]2CCN(C(=O)C3CC3)C2)C1=O [Compound 44, (R)-1-((1-(cyclopropanecarbonyl)pyrrolidin-3-yl)methyl)-2-(2-fluoro-4-(quinazolin-7-yl)phenyl)-4,4-dimethyl-1H-imidazol-5(4H)-one] | 6.79 | 6.65 |  | 
CC1(C)N=C(c2ccc(-c3ccc4cnccc4c3)cc2)N(CC2CN(C(=O)C3CC3)C2)C1=O [Compound 27, 1-((1-(cyclopropanecarbonyl)azetidin-3-yl)methyl)-2-(4-(isoquinolin-6-yl)phenyl)-4,4-dimethyl-1H-imidazol-5(4H)-one] | 6.72 | 6.41 |  | 
Cn1ncc2cc(-c3ccc(C4=NC(C)(C)C(=O)N4C[C@@H]4CCN(C(=O)C5CC5)C4)cc3)ccc21 [Compound 2, (R)-1-((1-(cyclopropanecarbonyl)pyrrolidin-3-yl)methyl)-4,4-dimethyl-2-(4-(1-methyl-1H-indazol-5-yl)phenyl)-1H-imidazol-5(4H)-one] | 6.85 | 6.15 |  | 
CC1(C)N=C(c2ccc(-c3ccc4cccnc4c3)cc2F)N(C[C@@H]2CCN(C(=O)C3CC3)C2)C1=O [Compound 49, (R)-1-((1-(cyclopropanecarbonyl)pyrrolidin-3-yl)methyl)-2-(2-fluoro-4-(quinolin-7-yl)phenyl)-4,4-dimethyl-1H-imidazol-5(4H)-one] | 7.34 | 7.20 |  | 

More lines, now with the values ahead:

Human FASN pIC50 [1] | FASN Keto-reductase Domain pIC50 [2] | IC50 [1] [nM] | IC50 ([2]; read-out: FASN Keto-reductase Domain pIC50 (converted)) [nM] | SMILES
6.28 | 6.10 |  |  | Cn1cc(-c2ccc(-c3ccc(C4=NC(C)(C)C(=O)N4CC4CN(C(=O)C5(O)CC5)C4)c(F)c3)cc2)cn1 [Compound 81, 2-(3-fluoro-4′-(1-methyl-1H-pyrazol-4-yl)-[1,1′-biphenyl]-4-yl)-1-((1-(1-hydroxycyclopropanecarbonyl)azetidin-3-yl)methyl)-4,4-dimethyl-1H-imidazol-5(4H)-one]
7.55 | 6.55 |  |  | CC1(C)N=C(c2ccc(-c3ccc4cc(F)ccc4c3)cc2F)N(CC2CN(C(=O)C3CC3)C2)C1=O [Compound 54, 1-((1-(cyclopropanecarbonyl)azetidin-3-yl)methyl)-2-(2-fluoro-4-(6-fluoronaphthalen-2-yl)phenyl)-4,4-dimethyl-1H-imidazol-5(4H)-one]
7.27 | 7.27 |  |  | Cc1cc(-c2ccc(-c3cnn(C)c3)cc2)ccc1C1=NC(C)(C)C(=O)N1C[C@@H]1CCN(C(=O)C2(C)CC2)C1 [Compound 84, (R)-4,4-dimethyl-2-(3-methyl-4′-(1-methyl-1H-pyrazol-4-yl)-[1,1′-biphenyl]-4-yl)-1-((1-(1-methylcyclopropanecarbonyl)pyrrolidin-3-yl)methyl)-1H-imidazol-5(4H)-one]
6.25 | 5.77 |  |  | CC1(C)N=C(c2ccc(-c3nc4ccccc4o3)cc2F)N(CC2CN(C(=O)C3CC3)C2)C1=O [Compound 52, 2-(4-(benzo[d]oxazol-2-yl)-2-fluorophenyl)-1-((1-(cyclopropanecarbonyl)azetidin-3-yl)methyl)-4,4-dimethyl-1H-imidazol-5(4H)-one]
7.16 | 6.73 |  |  | CC1(C)N=C(c2ccc(-c3c[nH]c4ccccc34)cc2F)N(C[C@@H]2CCN(C(=O)C3CC3)C2)C1=O [Compound 63, (R)-1-((1-(cyclopropanecarbonyl)pyrrolidin-3-yl)methyl)-2-(2-fluoro-4-(1H-indol-3-yl)phenyl)-4,4-dimethyl-1H-imidazol-5(4H)-one]
7.52 | 6.92 |  |  | CC1(C)N=C(c2ccc(-c3ccc4cc(F)ccc4c3)cc2F)N(CC2CN(C(=O)C3(O)CC3)C2)C1=O [Compound 79, 2-(2-fluoro-4-(6-fluoronaphthalen-2-yl)phenyl)-1-((1-(1-hydroxycyclopropanecarbonyl)azetidin-3-yl)methyl)-4,4-dimethyl-1H-imidazol-5(4H)-one]
7.18 | 7.17 |  |  | Cn1ncc2cc(-c3ccc(C4=NC(C)(C)C(=O)N4C[C@@H]4CCN(C(=O)C5(C)CC5)C4)c(F)c3)ccc21 [Compound 73, (R)-2-(2-fluoro-4-(1-methyl-1H-indazol-5-yl)phenyl)-4,4-dimethyl-1-((1-(1-methylcyclopropanecarbonyl)pyrrolidin-3-yl)methyl)-1H-imidazol-5(4H)-one]
 |  | > 10000 |  | CC1(C)N=C(c2ccc(-c3ccc4ncccc4c3)cc2)N(CC2CN(C(=O)C3CC3)C2)C1=O [Compound 98, 1-((1-(cyclopropanecarbonyl)azetidin-3-yl)methyl)-4,4-dimethyl-2-(4-(quinolin-6-yl)phenyl)-1H-imidazol-5(4H)-one]
5.26 |  |  |  | CC1(C)N=C(c2ccc(-c3n[nH]c4ccccc34)cc2)N(CC2CN(C(=O)C3CC3)C2)C1=O [Compound 99, 2-(4-(1H-indazol-3-yl)phenyl)-1-((1-(cyclopropanecarbonyl)azetidin-3-yl)methyl)-4,4-dimethyl-1H-imidazol-5(4H)-one]
6.00 |  |  |  | CC1(C)N=C(c2ccc(-c3n[nH]c4ccccc34)cc2F)N(CC2CN(C(=O)C3CC3)C2)C1=O [Compound 58, 1-((1-(cyclopropanecarbonyl)azetidin-3-yl)methyl)-2-(2-fluoro-4-(1H-indazol-3-yl)phenyl)-4,4-dimethyl-1H-imidazol-5(4H)-one]
7.07 |  |  |  | Cn1ncc2cc(-c3ccc(C4=NC(C)(C)C(=O)N4C[C@@H]4CCN(C(=O)C5(O)CC5)C4)c(F)c3)ccc21 [Compound 76, (R)-2-(2-fluoro-4-(1-methyl-1H-indazol-5-yl)phenyl)-1-((1-(1-hydroxycyclopropanecarbonyl)pyrrolidin-3-yl)methyl)-4,4-dimethyl-1H-imidazol-5(4H)-one]
